Experimental data reported in patent US8076449B2, “Therapeutic agents of colivelin for neurodegenerative diseases” (Tomohiro Chiba, priority 2004, dated 2011).
Entries after “also recorded” stand apart in the source; their conditions may differ. Ends that are not written are not given here.

How the values were obtained:
G93A-SOD1 Tg mice = test: In vivo effect on ALS mice: onset, survival, rotarod (Example 5); parameters: species or system mouse
Description: Mice treated with a control (n=16), ADNF (n=15), AGA-C8R-HNG17 (n=14), or colivelin (n=13) were compared by the Kaplan-Meier life test. In addition, the average day of death was compared (FIG. 8c), wherein statistical analysis was conducted by one-way ANOVA, followed by Fischer's PLSD test (**p<0.01). The motor function was evaluated by a rotarod test (FIG. 8d). Mice icy-administered with a control (n=13), ADNF (n=14), AGA-C8R-HNG17 (n=14), or colivelin (n=12) were placed onto a rotating rod at a speed of 5 rpm and observed over max 420 seconds, wherein statistical analysis was conducted by repeatedly measured ANOVA and Fischer's PLSD test.
Cannulas were fixed under aseptic conditions to the left lateral ventricles of G93A-SOD1 Tg mice (ALS model mice, 70-day-old). Colivelin ([…] in 3 μl of saline per two days) was icy-injected through the cannulas to compare its protective effect with those of the same amount of ADNF and AGA-C8R-HNG17 (FIG. 8).
The 1-onset (FIG. 8a) and survival (FIG. 8b) of mice treated with a control (n=16), ADNF (n=15), AGA-C8R-HNG17 (n=14), or colivelin (n=13) were compared by the Kaplan-Meier life test. As a result, the colivelin-treated group completely delayed ALS onset up to approximately 114 days, as compared with the ADNF-treated group (approximately 106 days) and the AGA-C8R-HNG17-treated group (approximately 108 days). Regarding survival as well, the colivelin-treated group prolonged the life span of 100% of the mice up to approximately 145 days, as compared with the ADNF-treated group (approximately 133 days) and the AGA-CBR-HNG17-treated group (approximately 138 days). Average age at death was longest in the colivelin-treated mice and was approximately 153 days (FIG. 8c).
Additionally, the motor function was evaluated by the rotarod test (FIG. 8d). Mice treated with a control (n=13), ADNF (n=14), AGA-C8R-HNG17 (n=14), or colivelin (n=12) were placed onto a rotating rod at a speed of 5 rpm and observed over max 420 seconds, wherein statistical analysis was conducted by ANOVA and Fischer's PLSD test.

[1] = system: F11 cells transformed with M146L-PS1; test: M146L-PS1-induced neuronal cell death in the presence of ADNF, Trypan blue exclusion assay; assay type: cell-based, rat/mouse hybrid; conditions: for concentration completely suppressing M146L-PS1-induced cell death in the presence of ADNF: in the presence of 100 nM ADNF, 72 hours
Description: The protective effect of colivelin and ADNF used together against neuronal cell death induced by M146L-PS1 was examined. F11 cells were transformed with M146L-PS1 in the presence or absence of […] and treated with varying concentrations (100 aM, 1 fM, 10 fM, 100 fM, 1 pM, 10 pM, 100 pM, 1 nM, 10 nM, or 100 nM) of colivelin or AGA-C8R-HNG17.
After 72 hours of the transformation, cell mortality was measured by Trypan blue exclusion assay (FIG. 4). Approximately 50% of the neuronal cells died after the transformation with mutant PS1 gene, whereas only 10% of the untreated or empty vector-transformed cells died. […] When the M146L-PS1-transformed neuronal cells in the presence of 100 nM ADNF were treated with 10 pM colivelin, the neuronal cells died at a rate equal to that of the untreated (No) or empty vector (vec)-transformed cells.

[2] = system: primary cultured cortical neurons treated with Aβ (1-43); test: Neuronal cell death induced by Aβ (1-43) peptide, WST-8 and calcein cell viability assays; assay type: cell-based, mouse
Description: (ii) Test of Neuronal Cell Death Induced by Aβ (1-43) Peptide
Mouse cortical neurons were primarily cultured on a poly-D-lysine-coated 96-well plate (Sumitomo Bakelite, Akita, Japan) in the absence of serum and the presence of N2 […] according to the previous report (Sudo et al., 2000, Mol. Cell. Neurosci., 16: 708-723). The purity of the neurons by this method was 98% or more. The prepared neurons (5.0×10^4 cells/well, 100 μl of medium/well) were cultured for 72 hours in the presence or absence of varying concentrations (100 aM, 1 fM, 10 fM, 100 fM, 1 pM, 10 pM, 100 pM, 1 nM, 10 nM, or 100 nM) of colivelin or AGA-C8R-HNG17 peptide. Since primary cultured neurons temporarily become fragile during medium replacement, the neurons were treated with 25 μM Aβ as follows: at first, a half volume (50 μl) of the old medium was discarded. Next, 50 μM Aβ and 50 μl of prewarmed fresh medium containing varying concentrations of colivelin or AGA-CBR-HNG17 peptides were added to the culture. Aβ (1-43) was purchased from Peptide Institute. The Aβ peptides used at the concentration of 25 μM for inducing neuronal cell death formed aggregation in the medium during 72-hour cell culture at 37° C. (Hashimoto Y, et al., 2001, J Neurosci 21: 9235-9245).
WST-8 cell viability assay was conducted with Cell Counting Kit-8 according to the previous report (Hashimoto Y, et al, 2001, Proc Natl Acad Sci USA 98: 6336-6341).
Calcein assay was conducted with calcein-AM (Dojindo, Kumamoto, Japan) according to the previous report (Hashimoto Y, et al., 2001, J Neurosci 21: 9235-9245).
These assays were simultaneously performed. After 72 hours of the Aβ treatment, the cells were added to a mixture of 10 μl of WST-8 solution and 1 μl of 600 μM calcein-AM and cultured at 37° C. for 2 hours in a CO2 incubator to measure a WST-8 absorption at O.D. 450. To decrease background, the medium was replaced by phosphate-buffered saline, followed by the measurement of calcein-specific fluorescence (excitation: 485 nm, emission: 535 nm) by fluorescence microcopy or with a spectrofluorometer (Wallac 1420 ARVOsx Multi Label Counter; Perkin Elmer, Wellesley, Mass., USA).

[3] = 10 μmol in 3 μl of saline per two days, icv
[4] = Aβ (1-43)-induced neuronal cell death

| Sequence | ALS onset completely delayed up to (Kaplan-Meier) (G93A-SOD1 Tg mice; [3]) | life span of 100% of the mice prolonged up to (Kaplan-Meier survival) (G93A-SOD1 Tg mice; [3]) | concentration completely suppressing M146L-PS1-induced cell death in the presence of ADNF [1] [pM] | concentration achieving complete protection ([2]; 25 μM Aβ (1-43), 72 hours) [fM] | EC50 ([2]; 25 μM Aβ (1-43), 72 hours, WST-8, read-out: concentration at which half of the neurons were rescued) [pM] | effect of ADNF itself on cell death ([1]; 100 nM ADNF alone) | concentration at or over which protective activity attenuated ([2]; Aβ (1-43) toxicity) [nM] | average age at death (G93A-SOD1 Tg mice; [3]) | motor function by rotarod test (G93A-SOD1 Tg mice; 5 rpm, max 420 seconds, icv treatment) | activity level with 100 nM ADNF relative to that without ADNF ([1]; M146L-PS1, 10 pM with ADNF versus without) | potency relative to AGA-C8R-HNG17 [2, 4] [fold] | potency relative to HNG [2, 4] | protective activity at high concentration ([2]; at 100 nM) |
| --- | --- | --- | --- | --- | --- | --- | --- | --- | --- | --- | --- | --- | --- |
| PAGASRLLLLTGEIDLP [AGA-C8R-HNG17, Pro-Ala-Gly-Ala-Ser-Arg-Leu-Leu-Leu-Leu-Thr-Gly-Glu-Ile-Asp-Leu-Pro, reference compound] | approximately 108 days | approximately 138 days | 10 | 10000 | 1 | – | – | – | – | – | – | – | – |
| SALLRSIPA [ADNF, reference compound] | approximately 106 days | approximately 133 days | – | 100 | – | Neither general cell death nor M146L-PS1-induced neuronal cell death was affected | ≥ 1 | – | – | – | – | – | – |
| SALLRSIPAPAGASRLLLLTGEIDLP [colivelin] | approximately 114 days | approximately 145 days | 10 | 100 | – | – | – | approximately 153 days | ameliorated most; also recorded: significantly better | 1/100 | 100 | 100,000 fold | did not disappear |
